One may read the IC50 as the point on the concentration scale where inhibition reaches its midpoint. A lower IC50 goes with higher potency. Usually CC50 stands for the concentration that lowers cell viability or growth by half.

The target in assay [1] is Poly [ADP-ribose] polymerase 1 (Homo sapiens, UniProt P09874). Kind of assay: Inhibition of PARP-1 (unknown origin).
In assay [2] the target is Poly [ADP-ribose] polymerase 2 (Homo sapiens, UniProt Q9UGN5). As to the kind of experiment: Inhibition of PARP-2 (unknown origin).
The subject of assay [3] is MDA-MB-436. Kind of assay: Antiproliferative activity against BRCA1 deficient human MDA-MB-436 cells. It counts as functional.
The species entered for assay [4] is Homo sapiens. As to the kind of experiment: Selectivity index, ratio of IC50 for PARP-2 (unknown origin) to IC50 for PARP-1 (unknown origin).
The nature of assay [5]: Antiproliferative activity against BRCA2 deficient chinese hamster V-C8 cells. It counts as functional, Cricetulus griseus.
Assay [6] concerns MDA-MB-436. As to the kind of experiment: Antitumor activity against human MDA-MB-436 cells harboring BRCA1 mutation xenografted in mouse assessed as tumor growth inhibition administered orally for 21 days. It counts as functional. To be noted: time 21.0 day. For orientation: A xenograft is tissue or cells of one species grown in another, often human tumour cells in immunodeficient mice.

Poly [ADP-ribose] polymerase 2, sequence (Q9UGN5 whole entry): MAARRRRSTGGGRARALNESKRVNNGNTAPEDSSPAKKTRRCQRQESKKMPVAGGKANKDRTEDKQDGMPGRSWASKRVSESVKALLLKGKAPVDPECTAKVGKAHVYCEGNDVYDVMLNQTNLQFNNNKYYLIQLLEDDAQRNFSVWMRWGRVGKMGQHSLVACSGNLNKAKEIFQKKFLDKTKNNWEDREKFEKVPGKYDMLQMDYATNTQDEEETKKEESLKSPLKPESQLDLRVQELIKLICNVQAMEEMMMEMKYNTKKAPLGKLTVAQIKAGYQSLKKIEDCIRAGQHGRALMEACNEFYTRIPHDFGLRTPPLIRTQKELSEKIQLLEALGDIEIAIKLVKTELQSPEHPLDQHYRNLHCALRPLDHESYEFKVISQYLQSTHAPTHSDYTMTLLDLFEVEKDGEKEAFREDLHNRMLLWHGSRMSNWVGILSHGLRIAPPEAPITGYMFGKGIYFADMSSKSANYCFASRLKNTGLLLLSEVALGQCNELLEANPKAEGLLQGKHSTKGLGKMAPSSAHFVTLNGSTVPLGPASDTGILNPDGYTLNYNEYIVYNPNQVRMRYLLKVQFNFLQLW
Poly [ADP-ribose] polymerase 1, sequence (P09874 whole entry): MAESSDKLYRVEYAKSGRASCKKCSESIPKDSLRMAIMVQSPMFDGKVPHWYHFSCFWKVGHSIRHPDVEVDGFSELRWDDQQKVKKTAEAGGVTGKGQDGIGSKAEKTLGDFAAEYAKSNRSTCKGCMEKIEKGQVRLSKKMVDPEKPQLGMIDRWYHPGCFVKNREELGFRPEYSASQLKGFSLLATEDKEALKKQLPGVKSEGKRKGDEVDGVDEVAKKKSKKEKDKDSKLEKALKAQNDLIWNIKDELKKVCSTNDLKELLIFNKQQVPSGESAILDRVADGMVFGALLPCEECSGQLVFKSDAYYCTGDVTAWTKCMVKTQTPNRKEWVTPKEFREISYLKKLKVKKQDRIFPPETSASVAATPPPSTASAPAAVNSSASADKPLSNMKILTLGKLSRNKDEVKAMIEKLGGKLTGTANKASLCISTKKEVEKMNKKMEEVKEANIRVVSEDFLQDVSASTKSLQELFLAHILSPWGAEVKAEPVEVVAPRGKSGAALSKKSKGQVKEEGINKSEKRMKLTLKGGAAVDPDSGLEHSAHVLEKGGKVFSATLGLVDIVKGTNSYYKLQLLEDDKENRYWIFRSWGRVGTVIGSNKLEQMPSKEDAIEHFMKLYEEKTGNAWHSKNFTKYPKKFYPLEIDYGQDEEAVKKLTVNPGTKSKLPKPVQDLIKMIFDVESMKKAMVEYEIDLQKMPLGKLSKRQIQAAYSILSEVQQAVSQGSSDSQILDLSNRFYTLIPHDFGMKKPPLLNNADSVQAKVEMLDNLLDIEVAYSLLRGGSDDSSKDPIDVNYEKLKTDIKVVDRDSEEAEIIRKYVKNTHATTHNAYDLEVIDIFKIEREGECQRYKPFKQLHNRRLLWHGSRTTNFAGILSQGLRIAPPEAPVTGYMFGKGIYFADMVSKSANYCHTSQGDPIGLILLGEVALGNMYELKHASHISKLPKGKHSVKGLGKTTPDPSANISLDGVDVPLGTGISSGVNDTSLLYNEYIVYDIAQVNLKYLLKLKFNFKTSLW

On to `NC(=O)c1cc(Cl)c2ccc(-c3ccc(CN4CCCC4)cc3)nn12`, for which the IC50 in assay [1] was 432 nM; in assay [2] it was 1120 nM. The CC50 came out at 5400 nM in assay [3] (Homo sapiens, MDA-MB-436) and 2150 nM in assay [5] (Cricetulus griseus, V-C8). Moreover, the Ratio IC50 in assay [4] came out at 2.6.
The like results for `CCN(CC)Cc1ccc(-c2ccc3c(Cl)cc(C(N)=O)n3n2)cc1` were, in that order, 434 nM, 2200 nM, 3730 nM, 3510 nM and 5.1.
Taken in the same sequence, the figures for `NC(=O)c1cc(Cl)c2ccc(-c3ccc(CN4CCN(C5CC5)CC4)cc3)nn12` were 1080 nM, 997 nM, 75200 nM, more than 10000 nM and 0.92.
Take `NC(=O)c1cc(Cl)c2ccc(-c3ccc(C(=O)N4CCNCC4)cc3)nn12`: the IC50 in assay [1] worked out at 340 nM; in assay [2], 1010 nM. Also, the CC50 in assay [3] (Homo sapiens, MDA-MB-436) was 8090 nM; in assay [5] (Cricetulus griseus, V-C8), more than 10000 nM. In addition, the Ratio IC50 in assay [4] is 3.
The like results for `CN(C)C1CCN(Cc2ccc(-c3ccc4c(Cl)cc(C(N)=O)n4n3)cc2)CC1` were, in that order, 818 nM, 1130 nM, 5480 nM, 2780 nM and 1.4.
Taken in the same sequence, the figures for `CN(C)Cc1ccc(-c2ccc3c(Cl)cc(C(N)=O)n3n2)cc1` were 93.3 nM, 705 nM, 687 nM, 6200 nM and 7.5.
For the molecule `COC1CCN(C(=O)c2ccc(-c3ccc4c(Cl)cc(C(N)=O)n4n3)cc2)CC1`, the IC50 in assay [1] amounted to 3510 nM; in assay [2], 4510 nM. In addition, the Ratio IC50 in assay [4] turned out to be 1.28. In addition, half-maximal cytotoxicity in assay [5] (Cricetulus griseus, V-C8) (CC50) was put at 4420 nM.
With `CNCc1ccc(-c2ccc3c(Cl)cc(C(N)=O)n3n2)cc1`, the IC50 amounted to 249 nM in assay [1] and 1120 nM in assay [2]. The CC50 is 1280 nM in assay [3] (Homo sapiens, MDA-MB-436) and 2000 nM in assay [5] (Cricetulus griseus, V-C8). Also, the Ratio IC50 in assay [4] was 4.5.
The like results for `NC(=O)c1cc(Cl)c2ccc(-c3ccc(C(=O)N4CCN(C(=O)C5CC5)CC4)cc3)nn12` were, in that order, 443 nM, 1100 nM, 9540 nM, 2480 nM and 2.5.
Taken in the same sequence, the figures for `CC(C)CC(=O)N1CCN(C(=O)c2ccc(-c3ccc4c(Cl)cc(C(N)=O)n4n3)cc2)CC1` were 502 nM, 1010 nM, 3840 nM, 5750 nM and 2.
For the molecule `CN1CCc2cc(-c3ccc4c(Cl)cc(C(N)=O)n4n3)sc2C1`, the half-maximal inhibitory concentration (IC50) in assay [1] amounted to 141 nM; in assay [2] it was 382 nM. Further, the CC50 in assay [3] (Homo sapiens, MDA-MB-436) worked out at 2580 nM; in assay [5] (Cricetulus griseus, V-C8), 3620 nM. The Ratio IC50 in assay [4] was 2.7.
The like results for `CC(C)(C)C1NCCc2cc(-c3ccc4c(Cl)cc(C(N)=O)n4n3)sc21` (centres undefined) were, in that order, 1030 nM, 1000 nM, 1460 nM, 2040 nM and 0.97.
Take `NC(=O)c1cc(Cl)c2ccc(-c3ccc(CN4CCN(c5ccc(C(F)(F)F)cc5)CC4)cc3)nn12`: the IC50 came to 3330 nM in assay [1] and 445 nM in assay [2]. The 50% cytotoxic concentration (CC50) in assay [3] (Homo sapiens, MDA-MB-436) is 8090 nM; in assay [5] (Cricetulus griseus, V-C8), more than 10000 nM. Moreover, in assay [4], the Ratio IC50 came out at 0.13.
Taken in the same sequence, the figures for `CN1CCc2sc(-c3ccc4c(Cl)cc(C(N)=O)n4n3)cc2C1` were 157 nM, 363 nM, 3050 nM, 2640 nM and 2.3.
On to `O=C(c1cc(Cc2n[nH]c(=O)c3ccccc23)ccc1F)N1CCN(C(=O)C2CC2)CC1` [OLAPARIB], for which the cytotoxic concentration (CC50) in assay [3] is 11.4 nM; in assay [5], 400 nM.
`COC1CCN(C(=O)c2ccc(-c3ccc4c(Cl)cc(C(N)=O)n4n3)c(F)c2)CC1`: the figures for the IC50 in assay [1] and in assay [2] were 114 nM and 1640 nM, respectively. Besides, in assay [4], the Ratio IC50 came to 8.9.
Consider `NC(=O)c1cc(Cl)c2cc(-c3cc4c(s3)CNCC4)cnn12`, for which, in assay [6], the TGI entry was “Dose-dependent effect”.
With `CC(C)N1CCN(Cc2ccc(-c3ccc4c(Cl)cc(C(N)=O)n4n3)cc2)CC1`, the IC50 turned out to be 369 nM in assay [1] and 1440 nM in assay [2]. Also, the half-maximal cytotoxic concentration (CC50) in assay [3] (Homo sapiens, MDA-MB-436) worked out at 3550 nM; in assay [5] (Cricetulus griseus, V-C8) it was 2700 nM. In assay [4], the Ratio IC50 amounted to 3.9.
`NC(=O)c1cc(Cl)c2ccc(-c3cc4c(s3)CCNC4)nn12`: the values for the 50% inhibitory concentration (IC50) in assay [1] and in assay [2] were 7.24 nM and 209 nM, respectively. In addition, the CC50 amounted to 214 nM in assay [3] (Homo sapiens, MDA-MB-436) and 1330 nM in assay [5] (Cricetulus griseus, V-C8).
For the molecule `COC1CCN(C(=O)c2ccc(-c3ccc4c(Cl)cc(C(N)=O)n4n3)cc2)C1` (centres undefined), the IC50 stood at 362 nM in assay [1] and 1710 nM in assay [2]. In assay [3] (Homo sapiens, MDA-MB-436), this molecule registered a CC50 of 9640 nM. Further, the Ratio IC50 in assay [4] was determined as 4.74.
Taken in the same sequence, the figures for `NC(=O)c1cc(Cl)c2ccc(-c3ccc(CN4CCNCC4)cc3)nn12` were 627 nM, 2330 nM, 9670 nM and 3.7.
Regarding `NC(=O)c1cc(Cl)c2ccc(-c3ccc(F)c(C(=O)N4CCN(C(=O)C5CC5)CC4)c3)nn12`, the figures for the 50% inhibitory concentration (IC50) in assay [1] and in assay [2] were 166 nM and 1920 nM, respectively. In addition, the Ratio IC50 in assay [4] was found to be 11.6. In assay [5] (Cricetulus griseus, V-C8), this molecule had a 50% cytotoxic concentration (CC50) of 7030 nM.
With `COC1CCN(C(=O)c2ccc(-c3ccc4c(Cl)cc(C(N)=O)n4n3)c(F)c2)C1` (centres undefined), the concentration for half-maximal inhibition (IC50) in assay [1] is 661 nM; in assay [2], 1590 nM. Further, the Ratio IC50 in assay [4] came out at 2.4.
With `NC(=O)c1cc(Cl)c2ccc(-c3ccc(C(=O)N4CCN(C(=O)C5CC5)CC4)cc3F)nn12`, the IC50 in assay [1] amounted to 219 nM; in assay [2], 2320 nM. Further, the 50% cytotoxic concentration (CC50) in assay [3] (Homo sapiens, MDA-MB-436) was determined as 2950 nM; in assay [5] (Cricetulus griseus, V-C8), 2310 nM. Besides, the Ratio IC50 in assay [4] was 10.7.

For the origin of these results see ChEMBL document CHEMBL4673325, “Identification of 2-substituted pyrrolo[1,2-b]pyridazine derivatives as new PARP-1 inhibitors” (Bioorg Med Chem Lett, 2021).
